Experimental data from US20100055093A1, “PAN-CELL SURFACE RECEPTOR-SPECIFIC THERAPEUTICS” (RECEPTOR BIOLOGIX INC., priority 2006, published 2010).
Entries after “also recorded” stand apart in the source; their conditions may differ. Marks after values point to notes of the source that are not given here.

Tests used:
[1] = system: heregulin (HRG); assay: 125I-HRG binding with BS3 cross-linking and SDS-PAGE; conditions: for binding of 125I-HRG: 5 nM 125I-HRG, BS3 cross-linking, SDS-PAGE
Procedure: 1 mM of the BS3 crosslinker was added at the end of the binding assay to cross-link the bound molecules. Binding reactions were separated on an SDS-PAGE gel.
(§1) Western blots were probed with anti-His antibody to compare protein levels.

[2] = target: EGF (Homo sapiens, UniProt P01133); assay: 125I-EGF binding with BS3 cross-linking and SDS-PAGE; conditions: supernatant of transfected 293T cells, 5 nM 125I-EGF, BS3 cross-linking, SDS-PAGE
Procedure: BS^3, a chemical crosslinker (Pierce) was added at the end of the binding assay to cross-link the bound molecules. Samples were separated on an SDS-PAGE gel and exposed to a film for detection.
as §1

[3] = target: T1, HER3 (Homo sapiens, UniProt P21860); assay: ELISA-based HER receptor phosphorylation assay, HER3; assay type: cell-based; conditions: HRG; for maximal inhibition of HER3 phosphorylation: 600 nM protein; for IC50: read-out: IC50, inhibition of HER3 phosphorylation
T1 construct: endogenous in cells
Procedure: (§2) Phosphorylation of HER receptors was assessed in an ELISA-based HER Receptor phosphorylation assay. Various cells (A431, MCF7, SK-BR3, SK-OV3, MCF7/HER2) were serum-starved in serum free medium for about 24 hr.
(§3) Cells were lysed on ice for 15 min and cell lysate were applied to a 96-well plate pre-coated with the respective receptor-specific capture antibodies (antibodies were purchased from R & D System) by manufacture recommended concentrations (0.4 to 4 ug/ml) and condition (in PBS, room temperature, overnight). Cell lysates were incubated with the capture Ab plate for 3 hrs at room temperature. Plates were washed 3× with PBST buffer. Anti-phosphotyrosine antibody clone 4G10 HRP-conjugated (Upstate) were diluted at 1:1000 in 1% of BSA.PBS and added to the plates, 100 μl/well for 1 hr to detect specifically HER receptors phosphorylated on tyrosine. After 3× PBST wash, the plates were developed by adding 100 μl of substrate solution (TMB, Sigma) and stopped by 50 μl of SDS stop solution. The optical density was determined by microplate reader at 650 nm (Molecular Devices, VERSAmax).

[4] = target: T2, HER2 (Homo sapiens, UniProt P04626); assay: ELISA-based HER receptor phosphorylation assay, HER2; assay type: cell-based; conditions: MCF7/HER2 cells, HRG, 600 nM protein
T2 construct: endogenous in cells
Procedure: as §2, §3

[5] = system: A431 s.c. tumor; assay: Therapeutic evaluation in A431 s.c. human tumor xenograft model; assay type: in vivo, nude mice
Procedure: Mice were obtained from the commercial suppliers (Harlan, UK). The mice were 4-6 weeks old at the start of the study. […] The room was air-conditioned by a system designed to maintain an air temperature range of 23±2° C. Mice were housed in groups of 2 or 5 during the procedure in plastic cages (Techniplast UK) with irradiated bedding and provided with both nesting materials and environmental enrichment. […] Tumor dimensions were recorded (calliper measurement of length and width and tumor cross-sectional area and volume calculated) three times weekly and body weight measured weekly. Each mouse remained in the study until terminated, or until necessitate removal of that mouse from the study. Animals were terminated if the tumor size becomes excessive or any adverse effects are noted. At termination the mice were anaesthetized (Hypnorm/Hynovel) and 1 ml blood removed by cardiac puncture, processed for plasma, frozen for both the pilot and therapeutic study. The mice were then terminated by an approved S1 method. For the therapeutic study, the tumors were excised, weighed, measured and fixed in formalin. Body weight data, tumor growth and final tumor weight were recorded and reported in spreadsheet and graphical format. Statistical analysis was performed if appropriate using Minitab. […] An extra group for the therapeutic study was added by PRECOS as below. Group 9: 30 mg/kg human IgG i.p. 3 times weekly. Iressa was prepared by PRECOS in 10% DMSO & 5% Cremaphor in PBS. Tumors were initiated with 2×10^6 cells per mouse for the therapeutic study.

[6] = system: A431 tumor bearing mice; assay: Pilot toxicity study in A431 tumor bearing mice; assay type: in vivo, nude mice
Procedure: Mice were obtained from the commercial suppliers (Harlan, UK). The mice were 4-6 weeks old at the start of the study. […] The room was air-conditioned by a system designed to maintain an air temperature range of 23±2° C. Mice were housed in groups of 2 or 5 during the procedure in plastic cages (Techniplast UK) with irradiated bedding and provided with both nesting materials and environmental enrichment.
Cells were injected subcutaneously into mice at 1×10^7 cells in a volume of 100 μl.
For the pilot toxicity study, mice were allocated to their treatment groups and treatment began on day 5 for 2 weeks in a dosing volume of 150 μl per injection. […] Tumor dimensions were recorded (calliper measurement of length and width and tumor cross-sectional area and volume calculated) three times weekly and body weight measured weekly.
Each mouse remained in the study until terminated, or until necessitate removal of that mouse from the study. Animals were terminated if the tumor size becomes excessive or any adverse effects are noted. At termination the mice were anaesthetized (Hypnorm/Hynovel) and ˜1 ml blood removed by cardiac puncture, processed for plasma, frozen for both the pilot and therapeutic study. The mice were then terminated by an approved S1 method.
Pilot toxicity study was terminated after 12 days of dosing in order to collect plasma samples 3 hours after dosing. […]

[7] = system: MCF7 cells; assay: Ligand-stimulated cell proliferation, Alamar Blue; assay type: cell-based; conditions: MCF7 stimulated by HRGβ, at 1 μm
Procedure: Cell lines MCF7, ZR75-1, ME180 were purchased from ATCC and kept in 10% of FBS DMEM. Cells were seeded at 2000 per well in 96-well plate in 1% FBS supplemented DMEM. After 2-3 hr of seeding, increasing concentrations of candidate HER ECD derivatives were added to the culture in the present of ligands (EGF or HRGβ). Cells were incubated at 37° C. for about 72 hr. Cells relative density were measured by Alamar Blue method. Alamar Blue (Sigma) was prepared in PBS at concentration of 4 uM, added to the microplate at 1/10 volume of culture medium (final concentration 0.4 uM) and plates returned to the incubator. Fluorescence was read at Ex.=530 nm/Em.=590 nm after 2-4 hours at 37° C.

[8] = target: T3, neuregulin-1 beta 1 (NRG1β1) (human, UniProt Q02297-6 177-241, limits assumed); assay: 125I-HRG (5 nM) cross-linking (BS3), normalised by anti-HER3 Western blot densitometry
T3 construct: also called HRG; heregulin
T3 sequence (looked up): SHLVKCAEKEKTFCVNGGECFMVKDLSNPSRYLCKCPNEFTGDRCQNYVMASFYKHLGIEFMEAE
Procedure: 1 mM of the BS₃ crosslinker was added at the end of the binding assay to cross-link the bound molecules. Binding reactions were separated on an SDS-PAGE gel. The protein gel was dried and exposed to a film for 2 and 6 hours.

[9] = target: the molecule itself; assay: self-association by size exclusion chromatography (apparent over calculated molecular weight)
Procedure: This methodology permits simplified analysis of the ability of receptor ectodomains to associate as either homodimers or heterodimers. To perform molecular size exlusion analysis, eluted molecules were compared to reference standards. […] Smaller volumes elute in the retained volume of the column, while larger molecules elute in smaller volumes according to their increasing molecular mass.
Molecular size exclusion analysis was performed using a A TSK3000 size exclusion column (Tosoh Bioscience, Montgomeryville, Pa.) equilibrated with PBS at a flow rate of 0.7 ml/min. Gel filtration standards (BioRad, Hercules, Calif.) were used to calibrate the column. Their elution volumes and molecular weights were plotted. Elution volumes were determined for each unknown by injection of 30 μg of each molecule in PBS and their apparent molecular weights calculated. Flow was maintained over the column between injections. Molecular weights were determined using a Standard curve for molecular weight standards.

[10] = Group 5, 38 mg/kg Iressa, group mean
[11] = Group 6, 75 mg/kg Iressa, group mean

EGF, sequence (P01133 971-1023 limits assumed): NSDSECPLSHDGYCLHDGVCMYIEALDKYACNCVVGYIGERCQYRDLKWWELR

With “HFD310: truncated HER3 ECD (1-500) fused to Fc, SEQ ID NO:44” the “binding of 125I-HRG” value [1] was “equivalent binding”.

For “HFD200: full-length HER2 ECD fused to Fc, SEQ ID NO:42”, the “binding of 125I-EGF” value [2] was “did not show any detectable”, the “binding of 125I-EGF” value ([2]; listed as HER2-650/Fc) was “no binding” and the “binding of 125I-HRG” value [1] was “did not show any detectable”.

In the case of “HF300T: full-length HER3 ECD, residues 1-621, SEQ ID NO:26”, the “binding of HRG as compared to the other derivatives tested” value ([1]; normalized by anti-HER3 Western blot densitometry) is reported as “about 10%”, the “maximal inhibition of HER3 phosphorylation” value ([3]; MCF7 cells) is reported as “about 38%” and the IC50 ([3]; MCF7 cells) is reported as 48 nM. For the same molecule, the “maximal inhibition of HER3 phosphorylation” value ([3]; SK-BR3 cells) was “about 55%”.

“HF220T: truncated HER2 ECD, residues 1-508, SEQ ID NO:14” was tested, and the “maximal inhibition of HER2 phosphorylation” value [4] was “about 35%” and the “maximal inhibition of HER3 phosphorylation” value ([3]; MCF7/HER2 cells) was “about 35%”.

`COc1cc2ncnc(Nc3ccc(F)c(Cl)c3)c2cc1OCCCN1CCOCC1` [Iressa, Gefitinib] was tested, and the “tumor growth rate in comparison to the vehicle group” value ([5]; 38 mg/kg Iressa (Group 5)) was “did not”, the “reduction of final tumor weight” value ([5]; 75 mg/kg Iressa (Group 6)) was 69% and the “tumor growth rate in comparison to the vehicle group” value ([5]; 75 mg/kg Iressa i.p. days 1-5 cycled weekly (Group 6)) was “significantly decreased”. The “Tumor volume (mm^3) Day 7” value [5, 10] was 51.2 mm^3, the “Tumor volume (mm^3) Day 10” value [5, 10] was 79.4 mm^3 and the “Tumor volume (mm^3) Day 12” value [5, 10] was 108.8 mm^3. For the same molecule, the “Tumor volume (mm^3) Day 14” value [5, 10] was 152.6 mm^3, the “Tumor volume (mm^3) Day 17” value [5, 10] was 220.6 mm^3 and the “Tumor volume (mm^3) Day 19” value [5, 10] was 259.6 mm^3. For the same molecule, the “Tumor volume (mm^3) Day 21” value [5, 10] was 396.9 mm^3, the “Tumor volume (mm^3) Day 24” value [5, 10] was 477.0 mm^3 and the “Tumor volume (mm^3) Day 25” value [5, 10] was 491.1 mm^3. For the same molecule, the “Tumor volume (mm^3) Day 26” value [5, 10] was 510.1 mm^3, the “Tumor weight” value ([5]; Group 5, 38 mg/kg Iressa, final tumor weight, group mean) was 0.267 g and the “Tumor volume (mm^3) Day 7” value [5, 11] was 48.6 mm^3. For the same molecule, the “Tumor volume (mm^3) Day 10” value [5, 11] was 72.5 mm^3, the “Tumor volume (mm^3) Day 12” value [5, 11] was 87.1 mm^3 and the “Tumor volume (mm^3) Day 14” value [5, 11] was 104.3 mm^3. For the same molecule, the “Tumor volume (mm^3) Day 17” value [5, 11] was 123.1 mm^3, the “Tumor volume (mm^3) Day 19” value [5, 11] was 112.1# mm^3 and the “Tumor volume (mm^3) Day 21” value [5, 11] was 150.1# mm^3. The “Tumor volume (mm^3) Day 24” value [5, 11] was 180.5# mm^3, the “Tumor volume (mm^3) Day 25” value [5, 11] was 178.6# mm^3 and the “Tumor volume (mm^3) Day 26” value [5, 11] was 181.9# mm^3. For the same molecule, the “Tumor weight (g)” value ([5]; Group 6, 75 mg/kg Iressa, final tumor weight, group mean) was 0.095# g, the “tumor size prior to termination” value ([6]; Iressa treatment groups (groups 2 and 3)) was “inhibition of tumor size” and the adverse effects ([6]; i.p., 30 mg/kg RB200h, 75 mg/kg IRESSA, or 10 mg/kg RB200h with 38 mg/kg IRESSA, 12 days of dosing) was “No adverse effects”.

With “HF310T: truncated HER3 ECD, residues 1-500, SEQ ID NO:20” the “binding of 125I-HRG” value [1] was “equivalent binding”, the “maximal inhibition of HER3 phosphorylation” value ([3]; MCF7 cells) was “about 78%” and the IC50 ([3]; MCF7 cells) was 39 nM. The “maximal inhibition of HER3 phosphorylation” value ([3]; SK-BR3 cells) was “about 75%” and the inhibition of proliferation [7] was “about 95%”.

In the case of “HF210T: truncated HER2 ECD, residues 1-573, SEQ ID NO:16”, the “maximal inhibition of HER2 phosphorylation” value [4] is reported as “about 55%” and the “maximal inhibition of HER3 phosphorylation” value ([3]; MCF7/HER2 cells) is reported as “about 55%”.

With “HFD300: full-length HER3 ECD (1-621) fused to Fc, SEQ ID NO:46; homodimer” the “binding of 125I-HRG” value [1] was “equivalent binding; also recorded: bound” and the “binding of 125I-HRG” value ([1]; listed as HER3-621/Fc) was “binds”.

With “HFD400: full-length HER4 ECD fused to Fc, SEQ ID NO:48” the “binding of 125I-EGF” value [2] was “no binding”, the “binding of 125I-HRG” value [1] was “bound” and the “binding of 125I-HRG” value ([1]; listed as HER4-650/Fc) was “binds”.

B1: HER3-621, full-length HER3 ECD (receptor)
chain: SEVGNSQAVCPGTLNGLSVTGDAENQYQTLYKLYERCEVVMGNLEIVLTGHNADLSFLQWIREVTGYVLVAMNEFSTLPLPNLRVVRGTQVYDGKFAIFVMLNYNTNSSHALRQLRLTQLTEILSGGVYIEKNDKLCHMDTIDWRDIVRDRDAEIVVKDNGRSCPPCHEVCKGRCWGPGSEDCQTLTKTICAPQCNGHCFGPNPNQCCHDECAGGCSGPQDTDCFACRHFNDSGACVPRCPQPLVYNKLTFQLEPNPHTKYQYGGVCVASCPHNFVVDQTSCVRACPPDKMEVDKNGLKMCEPCGGLCPKACEGTGSGSRFQTVDSSNIDGFVNCTKILGNLDFLITGLNGDPWHKIPALDPEKLNVFRTVREITGYLNIQSWPPHMHNFSVFSNLTTIGGRSLYNRGFSLLIMKNLNVTSLGFRSLKEISAGRIYISANRQLCYHHSLNWTKVLRGPTEERLDIKHNRPRRDCVAEGKVCDPLCSSGGCWGPGPGQCLSCRNYSRGGVCVTHCNFLNGEPREFAHEAECFSCHPECQPMGGTATCNGSGSDTCAQCAHFRDGPHCVSSCPHGVLGAKGPIYKYPDVQNECRPCHENCTQGCKGPELQDCLGQTLVLIGKTLESRGPFEQKLISEEDLNMHTGHHHHHH
notes: also called HF300; HF300T
B1 was tested, and the “binding relative to the other derivatives tested” value [8] was roughly 10% and the “M. Wt. (ap):M. Wt.” value [9] was 2.66.

B2: HF410T (HER4-485) (receptor)
chain: QSVCAGTENKLSSLSDLEQQYRALRKYYENCEVVMGNLEITSIEHNRDLSFLRSVREVTGYVLVALNQFRYLPLENLRIIRGTKLYEDRYALAIFLNYRKDGNFGLQELGLKNLTEILNGGVYVDQNKFLCYADTIHWQDIVRNPWPSNLTLVSTNGSSGCGRCHKSCTGRCWGPTENHCQTLTRTVCAEQCDGRCYGPYVSDCCHRECAGGCSGPKDTDCFACMNFNDSGACVTQCPQTFVYNPTTFQLEHNFNAKYTYGAFCVKKCPHNFVVDSSSCVRACPSSKMEVEENGIKMCKPCTDICPKACDGIGTGSLMSAQTVDSSNIDKFINCTKINGNLIFLVTGIHGDPYNAIEAIDPEKLNVFRTVREITGFLNIQSWPPNMTDFSVFSNLVTIGGRVLYSGLSLLILKQQGITSLQFQSLKEISAGNIYITDNSNLCYYHTINWTTLFSTINQRILESRGPFEQKLISEEDLNMHTGHHHHHH
With B2 the “M. Wt. (ap):M. Wt.” value [9] was 1.98.
